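How tested: cells in 96-well plates exposed to compound for 48 hours at five concentrations. The concentration for 50% growth inhibition is given as GI50. TGI denotes the concentration required for complete inhibition of growth.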
Key:
Assay in all cases: NCI anticancer screen, dose series, 48 h
[1] = system: 786-0 renal
[2] = system: A498 renal
[3] = system: A549 NSCLC
[4] = system: ACHN renal
[5] = system: BT-549 breast
[6] = system: COLO 205 colon
[7] = system: DLD-1 colon
[8] = system: DMS 273 small cell lung
[9] = system: EKVX NSCLC
[10] = system: HCC-2998 colon
[11] = system: HCT-116 colon
[12] = system: HL-60(TB) leukemia
[13] = system: HOP-18 NSCLC
[14] = system: HOP-92 NSCLC
[15] = system: HT29 colon
[16] = system: IGROV1 ovarian
[17] = system: K-562 leukemia
[18] = system: KM20L2 colon
[19] = system: LOX IMVI melanoma
[20] = system: LXFL 529 NSCLC
[21] = system: M14 melanoma
[22] = system: MALME-3M melanoma
[23] = system: MCF7 breast
[24] = system: MDA-MB-231 breast
[25] = system: MOLT-4 leukemia
[26] = system: NCI-H460 lung
[27] = system: NCI-H522 lung
[28] = system: NCI/ADR-RES ovarian
[29] = system: OVCAR-3 ovarian
[30] = system: OVCAR-5 ovarian
[31] = system: OVCAR-8 ovarian
[32] = system: PC-3 prostate
[33] = system: RPMI-8226 leukemia
[34] = system: RXF 393 renal
[35] = system: SF-268 CNS
[36] = system: SF-539 CNS
[37] = system: SK-MEL-2 melanoma
[38] = system: SK-MEL-28 melanoma
[39] = system: SK-MEL-5 melanoma
[40] = system: SK-OV-3 ovarian
[41] = system: SN12C renal
[42] = system: SNB-19 CNS
[43] = system: SNB-75 CNS
[44] = system: SNB-78 CNS
[45] = system: SR leukemia
[46] = system: SW-620 colon
[47] = system: T-47D breast
[48] = system: TK-10 renal
[49] = system: U251 CNS
[50] = system: UACC-257 melanoma
[51] = system: UACC-62 melanoma
[52] = system: UO-31 renal
[53] = system: CAKI-1 renal
[54] = system: CCRF-CEM leukemia
[55] = system: DMS 114 small cell lung
[56] = system: HCT-15 colon
[57] = system: HOP-62 NSCLC
[58] = system: KM12 colon
[59] = system: M19-MEL melanoma
[60] = system: NCI-H226 lung
[61] = system: NCI-H23 lung
[62] = system: OVCAR-4 ovarian
[63] = system: SF-295 CNS
[64] = system: DU-145 prostate
[65] = system: HS 578T breast
[66] = system: MDA-MB-435
[67] = system: MDA-N

`COc1cc(C2c3cc4c(cc3[C@H](NC(=O)c3cccs3)C3COC(=O)[C@H]23)OCO4)cc(OC)c1OC` (stereo partly drawn) showed a TGI [1] of 21.7 µM, a TGI [2] of 0.0481 µM and a TGI [3] of 37.1 µM. The TGI [4] was 18.7 µM, the TGI [5] was 16.4 µM and the TGI [6] was 0.0308 µM. The TGI [7] was 36.8 µM, the TGI [8] was over 100 µM and the TGI [9] was over 100 µM. The TGI [10] was 13.2 µM, the TGI [11] was 1.05 µM and the TGI [12] was under 0.0251 µM. For the same compound, the TGI [13] was over 100 µM, the TGI [14] was 70.3 µM and the TGI [15] was 11.2 µM. For the same compound, the TGI [16] was over 100 µM, the TGI [17] was over 37.8 µM and the TGI [18] was 0.0396 µM. It also gave a TGI [19] of over 41 µM, a TGI [20] of 47.2 µM and a TGI [21] of 33.7 µM. The TGI [22] was over 100 µM, the TGI [23] was 31.3 µM and the TGI [24] was 0.0128 µM. For the same compound, the TGI [25] was 24.5 µM, the TGI [26] was 10.8 µM and the TGI [27] was 0.0213 µM. The TGI [28] was 0.459 µM, the TGI [29] was over 100 µM and the TGI [30] was over 95.1 µM. The TGI [31] was 94.4 µM, the TGI [32] was 0.0236 µM and the TGI [33] was 19.3 µM. The TGI [34] was 0.0543 µM, the TGI [35] was over 40.8 µM and the TGI [36] was under 0.0141 µM. For the same compound, the TGI [37] was over 100 µM, the TGI [38] was 83.9 µM and the TGI [39] was 0.708 µM. It also gave a TGI [40] of over 100 µM, a TGI [41] of 19.5 µM and a TGI [42] of over 100 µM. The TGI [43] was over 100 µM, the TGI [44] was over 100 µM and the TGI [45] was 17.7 µM. The TGI [46] was over 100 µM, the TGI [47] was over 100 µM and the TGI [48] was over 100 µM. The TGI [49] was 0.865 µM, the TGI [50] was over 100 µM and the TGI [51] was over 100 µM. It also gave a TGI [52] of over 44.3 µM.
Work on `[N-]=[N+]=Nc1ccccc1-[n+]1noc([O-])c1Br` yielded a TGI [1] of over 100 µM, a TGI [3] of over 100 µM and a TGI [4] of over 100 µM. It also gave a TGI [53] of over 100 µM, a TGI [54] of over 100 µM and a TGI [6] of over 100 µM. For the same compound, the TGI [7] was over 100 µM, the TGI [55] was over 100 µM and the TGI [9] was over 100 µM. The TGI [11] was over 100 µM, the TGI [56] was over 100 µM and the TGI [12] was over 100 µM. For the same compound, the TGI [13] was over 100 µM, the TGI [57] was over 100 µM and the TGI [14] was over 100 µM. The TGI [15] was over 100 µM, the TGI [16] was over 100 µM and the TGI [17] was over 100 µM. For the same compound, the TGI [58] was over 100 µM, the TGI [18] was over 100 µM and the TGI [20] was over 100 µM. For the same compound, the TGI [21] was over 100 µM, the TGI [59] was over 100 µM and the TGI [22] was over 100 µM. For the same compound, the TGI [25] was over 100 µM, the TGI [60] was over 100 µM and the TGI [61] was over 100 µM. The TGI [26] was over 100 µM, the TGI [27] was over 100 µM and the TGI [29] was over 100 µM. For the same compound, the TGI [62] was over 100 µM, the TGI [31] was over 100 µM and the TGI [33] was over 100 µM. The TGI [34] was over 100 µM, the TGI [35] was over 100 µM and the TGI [63] was over 100 µM. The TGI [36] was over 100 µM, the TGI [37] was over 100 µM and the TGI [38] was over 100 µM. It also gave a TGI [39] of over 100 µM, a TGI [40] of over 100 µM and a TGI [41] of over 100 µM. It also gave a TGI [42] of over 100 µM, a TGI [43] of over 100 µM and a TGI [45] of over 100 µM. For the same compound, the TGI [46] was over 100 µM, the TGI [48] was over 100 µM and the TGI [49] was over 100 µM. The TGI [50] was over 100 µM, the TGI [51] was over 100 µM and the TGI [52] was over 100 µM.
`COc1ccc2nc3cccc([N+](=O)[O-])c3c(NCCN(CCO)CCO)c2c1` showed a GI50 [1] of 0.0268 µM, a TGI [1] of 0.156 µM and a GI50 [2] of 0.022 µM. The TGI [2] was 0.0524 µM, the GI50 [3] was 0.0257 µM and the TGI [3] was 0.403 µM. It also gave a GI50 [4] of 0.0142 µM, a TGI [4] of 0.0495 µM and a GI50 [5] of 0.0415 µM. For the same compound, the TGI [5] was 0.14 µM, the GI50 [53] was 0.0382 µM and the TGI [53] was 0.33 µM. The GI50 [54] was 0.0326 µM, the TGI [54] was 0.247 µM and the GI50 [6] was 0.0118 µM. The TGI [6] was 0.031 µM, the GI50 [64] was 0.014 µM and the TGI [64] was 0.717 µM. For the same compound, the GI50 [9] was 0.107 µM, the TGI [9] was 0.698 µM and the GI50 [10] was 0.0137 µM. It also gave a TGI [10] of 0.0331 µM, a GI50 [11] of 0.0154 µM and a TGI [11] of 0.607 µM. For the same compound, the GI50 [56] was 0.157 µM, the TGI [56] was 60.8 µM and the GI50 [12] was 0.0235 µM. For the same compound, the TGI [12] was 1.49 µM, the GI50 [57] was 0.0304 µM and the TGI [57] was 0.153 µM. It also gave a GI50 [14] of 0.0278 µM, a TGI [14] of 0.0829 µM and a GI50 [65] of 0.0647 µM. It also gave a TGI [65] of 0.272 µM, a GI50 [15] of 0.0117 µM and a TGI [15] of 0.043 µM. The GI50 [16] was 0.0329 µM, the TGI [16] was 0.242 µM and the GI50 [17] was 0.013 µM. It also gave a TGI [17] of 0.0487 µM, a GI50 [58] of 0.0367 µM and a TGI [58] of 0.202 µM. For the same compound, the GI50 [19] was 0.0379 µM, the TGI [19] was 0.18 µM and the GI50 [21] was 0.0128 µM. The TGI [21] was 0.0275 µM, the GI50 [22] was 0.0158 µM and the TGI [22] was 0.0408 µM. For the same compound, the GI50 [23] was 0.0138 µM, the TGI [23] was 0.548 µM and the GI50 [24] was 0.0385 µM. The TGI [24] was 0.42 µM, the GI50 [66] was 0.0175 µM and the TGI [66] was 0.0406 µM. For the same compound, the GI50 [67] was 0.023 µM, the TGI [67] was 0.0769 µM and the GI50 [25] was 0.0161 µM. It also gave a TGI [25] of 0.136 µM, a GI50 [60] of 0.0822 µM and a TGI [60] of 0.536 µM. For the same compound, the GI50 [61] was 0.0202 µM, the TGI [61] was 0.048 µM and the GI50 [26] was 0.0104 µM. For the same compound, the TGI [26] was 0.0985 µM, the TGI [27] was 0.018 µM and the GI50 [28] was 0.689 µM. It also gave a TGI [28] of 4.6 µM, a GI50 [29] of 0.0187 µM and a TGI [29] of 0.0501 µM. The GI50 [62] was 0.0222 µM, the TGI [62] was 0.0685 µM and the GI50 [30] was 0.0291 µM. It also gave a TGI [30] of 0.138 µM, a GI50 [31] of 0.014 µM and a TGI [31] of 0.138 µM. It also gave a TGI [32] of 0.219 µM, a GI50 [33] of 0.0155 µM and a TGI [33] of 0.102 µM. It also gave a GI50 [34] of 0.0155 µM, a TGI [34] of 0.032 µM and a GI50 [35] of 0.0332 µM. The TGI [35] was 0.234 µM, the GI50 [63] was 0.0304 µM and the TGI [63] was 0.337 µM. The GI50 [36] was 0.0893 µM, the TGI [36] was 0.27 µM and the GI50 [37] was 0.0117 µM. For the same compound, the TGI [37] was 0.0224 µM, the GI50 [38] was 0.0444 µM and the TGI [38] was 0.414 µM. It also gave a TGI [39] of 0.0175 µM, a GI50 [40] of 0.106 µM and a TGI [40] of 0.771 µM. The GI50 [41] was 0.0486 µM, the TGI [41] was 0.443 µM and the GI50 [42] was 0.129 µM. It also gave a TGI [42] of 1.45 µM, a GI50 [43] of 0.0747 µM and a TGI [43] of 0.225 µM. The GI50 [45] was 0.017 µM, the TGI [45] was 0.647 µM and the GI50 [46] was 0.0139 µM. The TGI [46] was 0.619 µM, the GI50 [47] was 0.0913 µM and the TGI [47] was 1.01 µM. It also gave a GI50 [48] of 0.0307 µM, a TGI [48] of 0.229 µM and a GI50 [49] of 0.021 µM. It also gave a TGI [49] of 0.136 µM, a GI50 [50] of 0.0248 µM and a TGI [50] of 0.0599 µM. It also gave a GI50 [51] of 0.0311 µM, a TGI [51] of 0.109 µM and a GI50 [52] of 0.0539 µM. For the same compound, the TGI [52] was 0.184 µM.

Reference: PubChem BioAssay (NCI)
